The text below walks through data of article PMC5517026, “Crystal structure and functional characterization of an isoaspartyl dipeptidase (CpsIadA) from Colwellia psychrerythraea strain 34H” (PLoS ONE, 2017).

Broadly, the Km is the concentration of substrate that gives half-maximal velocity. Broadly, the stoichiometry N is a count of units in the complex or per binding partner.

The target of experiment [1] is T1, CpsIadA (Colwellia psychrerythraea, UniProt Q484B6).
T1 construct: gene iadA; Ni-NTA and gel filtration; homo-octamer (314 kDa by AUC), two Zn ions per active site
The experiment in a line: coupled spectrophotometric assay (aspartate aminotransferase/malate dehydrogenase, NADH at […] nm). In kind it is biochemical. To be noted: 100 mM HEPES pH 8.0, 100 mM KCl, 30°C.

The target of experiment [2] is T1, CpsIadA. The experiment in a line: coupled assay with L-alanine dehydrogenase/diaphorase, INT reduction at […] nm. Conditions: 100 mM HEPES pH 8.0, 1.5 mM INT, 1.5 mM NAD+, 30°C. Type of experiment: biochemical.
Experiment [3] deals with T2, CpsIadA (Colwellia psychrerythraea, UniProt Q484B6, E80Q, form not given).
T2 construct: gene iadA; Ni-NTA and gel filtration; homo-octamer (314 kDa by AUC), two Zn ions per active site
The experiment in a line: X-ray crystal structure of the complex ([…] Å). To be noted: active site, two Zn ions; 5 mM ligand added before crystallization; catalytically inactive mutant. Type of experiment: binding.

The target in experiment [4] is CpsIadA E80Q mutant (Colwellia psychrerythraea strain 34H) (UniProt Q484B6). The experiment in a line: crystal structure; CpsIadA E80Q mutant with 5 mM β-aspartyl lysine, 2.33 Å, space group P4212, two monomers in the asymmetric unit; 0.1 M Bis-Tris propane pH 7.0, 1 M ammonium citrate tribasic pH 7.0, 293 K.
For experiment [5], the target named is isoaspartyl dipeptidase from Colwellia psychrerythraea strain 34H (CpsIadA), wild type (Colwellia psychrerythraea strain 34H) (UniProt Q484B6). The experiment in a line: SEC; analytical size-exclusion chromatography; conditions not given; self-association (octamer). A general note: Size exclusion chromatography separates by hydrodynamic size, large species first.

For experiment [6] the target is unchanged. The experiment in a line: AUC; sedimentation velocity, 20°C, 0.5 mg/mL CpsIadA, 25 mM Tris-HCl pH 8.0, 200 mM NaCl, 5 mM MgCl2, 2 mM dithiothreitol, 45,000 rpm, SEDFIT; self-association (octamer).
Experiment [7] shares this target. The experiment in a line: crystal structure; ligand-free wild type CpsIadA, 1.85 Å, space group P4212, two monomers in the asymmetric unit; 0.1 M Bis-Tris propane pH 7.0, 1.4 M sodium malonate, 293 K.

Where a SMILES comes first, the peptide text is derived from it.

T1 sequence (Q484B6 entry or part of it): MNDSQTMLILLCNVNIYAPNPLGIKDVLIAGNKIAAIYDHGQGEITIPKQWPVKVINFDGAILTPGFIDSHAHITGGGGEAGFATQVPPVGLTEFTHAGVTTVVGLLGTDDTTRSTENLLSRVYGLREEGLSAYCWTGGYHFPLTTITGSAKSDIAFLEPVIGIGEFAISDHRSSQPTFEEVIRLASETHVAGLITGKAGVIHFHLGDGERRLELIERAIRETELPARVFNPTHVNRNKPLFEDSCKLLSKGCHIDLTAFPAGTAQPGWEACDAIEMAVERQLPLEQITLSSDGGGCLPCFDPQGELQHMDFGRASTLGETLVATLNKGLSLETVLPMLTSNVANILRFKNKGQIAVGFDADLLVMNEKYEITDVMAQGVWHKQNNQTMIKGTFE
T2 sequence (Q484B6 entry or part of it E80Q, form open): as the sequence (Q484B6 entry or part of it) above, with E80Q counted along it

As for `CC(C)C[C@H](NC(=O)[C@@H](N)CC(=O)O)C(=O)O` [α-Asp-Leu] (H-Asp-Leu-OH), the Km at CpsIadA [1] was 6900 ± 400 µM.
Consider `C[C@H](NC(=O)CCN)C(=O)O` [β-Ala-Ala], for which, at CpsIadA [2], the Km worked out at 930 ± 300 µM.
With `C[C@H](NC(=O)C[C@H](N)C(=O)O)C(=O)O` [β-Asp-Ala], the Km at CpsIadA [1] was found to be 1200 ± 300 µM.
Take `N[C@@H](CC(=O)NCC(=O)O)C(=O)O` [β-Asp-Gly]: the Michaelis constant (Km) at CpsIadA [1] was 4700 ± 400 µM.
In the case of `N[C@@H](CC(=O)N[C@@H](Cc1c[nH]cn1)C(=O)O)C(=O)O` [β-Asp-His], the Km at CpsIadA [1] amounted to 5300 ± 500 µM.
The same measure, in the same setting: the same measure for `CC(C)C[C@H](NC(=O)C[C@H](N)C(=O)O)C(=O)O` [β-Asp-Leu]: 710 ± 80 µM.
In the case of `NCCCC[C@H](NC(=O)C[C@H](N)C(=O)O)C(=O)O` [β-Asp-Lys], the Michaelis constant (Km) on CpsIadA [1] turned out to be 1100 ± 90 µM. Moreover, the “X-ray crystal structure of the complex (2.33 Å)” value on CpsIadA [3] is reported as “β-isoaspartyl lysine bound CpsIadA E80Q mutant have been deposited in the Protein Data Bank”.
`N[C@@H](CC(=O)N[C@@H](Cc1ccccc1)C(=O)O)C(=O)O` [β-Asp-Phe]: the Michaelis-Menten constant (Km) at CpsIadA [1] is 490 ± 90 µM.
Molecule “CpsIadA E80Q mutant (from UniProt Q484B6 1-395) (enzyme)” returned a stoichiometry N in experiment [4] of 8.
Consider “isoaspartyl dipeptidase from Colwellia psychrerythraea strain 34H (CpsIadA), wild type (from UniProt Q484B6 1-395) (enzyme)”, for which the stoichiometry N in experiment [5], in experiment [6] and in experiment [7] was 8 each time.
